Some results are limits rather than exact numbers.

This assay addresses T1, FAAH (Rattus norvegicus, UniProt P97612).
T1 construct: For the assay of FAAH activity in rat brain membrane (RBM) homogenates; tissue Charles River (animals); host or cells: rat whole brain, membrane fraction
T1 sequence (P97612 1-579): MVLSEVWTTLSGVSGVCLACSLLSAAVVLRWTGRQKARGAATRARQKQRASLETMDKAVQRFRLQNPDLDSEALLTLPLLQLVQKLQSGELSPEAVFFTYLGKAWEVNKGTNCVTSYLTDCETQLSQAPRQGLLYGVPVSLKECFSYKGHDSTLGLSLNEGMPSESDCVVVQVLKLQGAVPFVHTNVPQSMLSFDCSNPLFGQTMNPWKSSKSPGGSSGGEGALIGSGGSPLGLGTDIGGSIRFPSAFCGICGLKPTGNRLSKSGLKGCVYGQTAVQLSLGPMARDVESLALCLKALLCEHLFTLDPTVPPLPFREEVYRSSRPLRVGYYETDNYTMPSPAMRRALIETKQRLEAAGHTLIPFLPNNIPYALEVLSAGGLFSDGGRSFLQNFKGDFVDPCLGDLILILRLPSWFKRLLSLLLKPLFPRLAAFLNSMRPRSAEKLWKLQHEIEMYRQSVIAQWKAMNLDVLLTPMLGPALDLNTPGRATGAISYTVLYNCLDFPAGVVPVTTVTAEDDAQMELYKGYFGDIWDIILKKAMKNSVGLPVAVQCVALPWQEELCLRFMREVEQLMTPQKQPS
Briefly: FAAH inhibition, rat brain membrane homogenate assay. The format is biochemical. Particulars: rat brain homogenate; average activity; read-out: Rat Brain Extract FAAH IC50. On the procedure:
Adult rats (Charles River CD strain, female, 200 g) were anaesthetized with isofluorane and rapidly decapitated. Each brain was quickly removed and chilled in tubes (3 brains per tube) on ice. About 25 mL of “homogenization buffer” (20 mM HEPES buffer, pH 7.0, with 1 mM MgCl2) was added to 15 to 20 g of brain. The brains were homogenized on ice for 1 minute using an Omni GLH homogenizer (Omni International, Marietta, Ga.). The homogenates were then transferred to three centrifuge tubes and centrifuged at 36,500 g for 20 minutes at 4° C. The supernatant was discarded and each pellet was re-suspended in 25 mL homogenization buffer. The re-suspended material was again centrifuged (36,500 g, 20 minutes at 4° C.). Pellets were combined by re-suspension in 10 mL of homogenization buffer and incubated in a 37° C. water bath for 15 minutes. The tubes were then placed on ice for 5 minutes followed by centrifugation at 36,500 g for 20 minutes at 4° C. The supernatant was discarded and the membrane pellets were then re-suspended in 40 mL of “re-suspension buffer” (50 mM Tris-HCl buffer, pH 7.4, containing 1 mM EDTA and 3 mM MgCl2). A Bradford Protein assay was performed to determine protein concentration. The protein was aliquotted into screw cap Cryo tubes each containing −400 μL, flash-frozen in liquid nitrogen and stored at −80° C. until used for the assay. A similar protocol was used to obtain brain membrane homogenates from mice
FAAH activity was assayed in the respective homogenates described herein (Rat brain, Mouse brain or Human brain) with certain of the exemplary compounds described above using a modification of the method of Omeir et al. (1995 Life Sci. 56:1999) and Fowler et al. (1997 J. Pharmacol. Exp. Ther. 283:729). For the assay of FAAH activity in rat brain membrane (RBM) homogenates, RBM homogenates (7 μg protein in 20 μL final volume of 10 mM Tris pH 6.5) were mixed with 180 μL of a mixture of the following: […] unlabelled anandamide (AEA), 0.03 Ci radio labeled anandamide [ethanolamine 1-^3H](40-60 Ci/mmol; product number ART-626, American Radiolabelled Chemicals, St. Louis, Mo.), 1 mg/mL Bovine Serum Albumin (fatty acid-free BSA, electrophoresis grade, Sigma, St. Louis, Mo.), 10 mM Tris-HCl (pH 6.5), and 1 mM EDTA in the presence and absence of test compounds (vehicle was DMSO at a final concentration of 1%) and incubated for 10 minutes at 37° C. Samples were placed on ice to terminate the reactions.
The ^3H-ethanolamine product and un-reacted ^3H-anandamide substrate were then separated by either: (1) using chloroform/methanol extraction or (2) passing the reaction mixture through a glass fiber filter containing activated charcoal. Samples were extracted with chloroform/methanol by adding 0.4 mL of chloroform/methanol (1:1 v/v), vigorously mixing the samples, and separating the aqueous and organic phases by centrifugation. Radioactivity (corresponding to FAAH-catalyzed breakdown of ^3H-anandamide) found in aliquots (0.2 mL) of the aqueous phase was determined by liquid scintillation counting with quench correction. IC50 values were determined as described by Jonsson et al. (2001 Br. J Pharmacol. 133:1263). Alternatively, reactions were purified using a modification of the solid-phase extraction method described by Wilson et al (2003 Anal. Biochem. 318: 270). This method was modified as follows: after reactions were incubated at 37° C. for 10 minutes and chilled on ice, the reaction mixtures were acidified by adding 10 μL of sodium phosphate solution[0.5M (pH 2.0)]. Next, 90 μL aliquots of the acidified reaction mixtures were applied to activated charcoal (that had been previously washed with methanol as described by Wilson et al. (supra)) containing 80 μL of water on top of a glass fiber filter, centrifuged, and the radioactivity in the eluate was counted as described previously by Wilson et al. (supra). […]
For orientation: IC50 means the concentration that inhibits the measured activity by half. Take `COc1ccc(Cn2c(C)c(C(=O)C(=O)Nc3ccnc(OC)c3)c3cc(OC)cnc32)nc1` [Compound 40, 2-(5-methoxy-1-((5-methoxypyridin-2-yl)methyl)-2-methyl-1H-pyrrolo[2,3-b]pyridin-3-yl)-N-(2-methoxypyridin-4-yl)-2-oxoacetamide]: the half-maximal inhibitory concentration (IC50) was less than 100 nM. The result for `COc1cc(NC(=O)C(=O)c2c(C)n(Cc3ccc(Cl)cc3)c3ccc(N)cc23)ccn1` [Compound 20, 2-(5-amino-1-(4-chlorobenzyl)-2-methyl-1H-indol-3-yl)-N-(2-methoxypyridin-4-yl)-2-oxoacetamide] reads less than 100 nM; that for `COc1cnc2c(c1)c(C(=O)C(=O)Nc1ccnc(OC)c1)c(C)n2Cc1ccc(Cl)cc1Cl` [Compound 42, 2-(1-(2,4-dichlorobenzyl)-5-methoxy-2-methyl-1H-pyrrolo[2,3-b]pyridin-3-yl)-N-(2-methoxypyridin-4-yl)-2-oxoacetamide], less than 100 nM. The result for `COc1cc(NC(=O)C(=O)c2c(C)n(Cc3ccc(Cl)cn3)c3ccc(C)cc23)ccn1` [Compound 61, 2-(1-((5-chloropyridin-2-yl)methyl)-2,5-dimethyl-1H-indol-3-yl)-N-(2-methoxypyridin-4-yl)-2-oxoacetamide] reads less than 100 nM; that for `C=Cc1ccc2c(c1)c(C(=O)C(=O)Nc1ccnc(OC)c1)c(C)n2Cc1ccc(Cl)cc1` [Compound 27, 2-(1-(4-chlorobenzyl)-2-methyl-5-vinyl-1H-indol-3-yl)-N-(2-methoxypyridin-4-yl)-2-oxoacetamide], less than 100 nM. The result for `COc1cc(NC(=O)C(=O)c2c(C)n(Cc3ccc(Cl)cn3)c3ccc([N+](=O)[O-])cc23)ccn1` [Compound 62, 2-(1-((5-chloropyridin-2-yl)methyl)-2-methyl-5-nitro-1H-indol-3-yl)-N-(2-methoxypyridin-4-yl)-2-oxoacetamide] reads less than 100 nM; that for `COc1cc(NC(=O)C(=O)c2c(C)n(Cc3ccc(Cl)cc3)c3ccncc23)ccn1` [Compound 37, 2-(1-(4-chlorobenzyl)-2-methyl-1H-pyrrolo[3,2-c]pyridin-3-yl)-N-(2-methoxypyridin-4-yl)-2-oxoacetamide], less than 100 nM; that for `COc1cc(NC(=O)C(=O)c2c(C)n(Cc3ccc(Cl)cc3)c3ccc(NC(C)=O)cc23)ccn1` [Compound 22, 2-(5-acetamido-1-(4-chlorobenzyl)-2-methyl-1H-indol-3-yl)-N-(2-methoxypyridin-4-yl)-2-oxoacetamide], 100 to 1000 nM. `COc1cc(NC(=O)C(=O)c2c(C)n(Cc3ccc(Cl)cc3)c3ncc(C)cc23)ccn1` [Compound 76, 2-(1-(4-chlorobenzyl)-2,5-dimethyl-1H-pyrrolo[2,3-b]pyridin-3-yl)-N-(2-methoxypyridin-4-yl)-2-oxoacetamide]: the IC50 is less than 100 nM. The result for `COc1ccc2c(c1)c(C(=O)C(=O)Nc1ccnc(OC)c1)c(C)n2Cc1cnc(Cl)cn1` [Compound 12, 2-(1-((5-chloropyrazin-2-yl)methyl)-5-methoxy-2-methyl-1H-indol-3-yl)-N-(2-methoxypyridin-4-yl)-2-oxoacetamide] reads less than 100 nM; that for `COc1cc(NC(=O)C(=O)c2c(C)n(Cc3ccc(Cl)cc3)c3ccc(Br)cc23)ccn1` [Compound 18, 2-(5-bromo-1-(4-chlorobenzyl)-2-methyl-1H-indol-3-yl)-N-(2-methoxypyridin-4-yl)-2-oxoacetamide], less than 100 nM; that for `COc1cc(NC(=O)C(=O)c2c(C)n(Cc3ncc(Cl)cc3F)c3cc(F)c(OC)cc23)ccn1` [Compound 99, 2-(1-((5-chloro-3-fluoropyridin-2-yl)methyl)-6-fluoro-5-methoxy-2-methyl-1H-indol-3-yl)-N-(2-methoxypyridin-4-yl)-2-oxoacetamide], less than 100 nM. The result for `COc1cc(NC(=O)C(=O)c2c(C)n(Cc3ccc(Cl)cn3)c3cc(C)c(OC)cc23)ccn1` [Compound 95, 2-(1-((5-chloropyridin-2-yl)methyl)-5-methoxy-2,6-dimethyl-1H-indol-3-yl)-N-(2-methoxypyridin-4-yl)-2-oxoacetamide] reads less than 100 nM; that for `CCN(CC)c1ccc2c(c1)c(C(=O)C(=O)Nc1ccnc(OC)c1)c(C)n2Cc1ccc(Cl)cc1` [Compound 24, 2-(1-(4-chlorobenzyl)-5-(diethylamino)-2-methyl-1H-indol-3-yl)-N-(2-methoxypyridin-4-yl)-2-oxoacetamide], 100 to 1000 nM.

On to `COc1cc(NC(=O)C(=O)c2c(C)n(Cc3ccc(Cl)cc3)c3ccc(COC(C)=O)cc23)ccn1` [Compound 10, (1-(4-chlorobenzyl)-3-(2-(2-methoxypyridin-4-ylamino)-2-oxoacetyl)-2-methyl-1H-indol-5-yl)methyl acetate], for which the IC50 is less than 100 nM. The result for `COc1cc(NC(=O)C(=O)c2c(C)n(Cc3ncc(Cl)cc3Cl)c3cc(Cl)c(OC)cc23)ccn1` [Compound 70, 2-(6-chloro-1-((3,5-dichloropyridin-2-yl)methyl)-5-methoxy-2-methyl-1H-indol-3-yl)-N-(2-methoxypyridin-4-yl)-2-oxoacetamide] reads less than 100 nM; that for `COc1cc(NC(=O)C(=O)c2c(C)n(Cc3ccc(Cl)cc3)c3ccc(OC(F)(F)F)cc23)ccn1` [Compound 23, 2-(1-(4-chlorobenzyl)-2-methyl-5-(trifluoromethoxy)-1H-indol-3-yl)-N-(2-methoxypyridin-4-yl)-2-oxoacetamide], less than 100 nM. The result for `COc1cc(NC(=O)C(=O)c2c(C)n(Cc3ccc(Cl)cn3)c3ccc(Cl)cc23)ccn1` [Compound 63, 2-(5-chloro-1-((5-chloropyridin-2-yl)methyl)-2-methyl-1H-indol-3-yl)-N-(2-methoxypyridin-4-yl)-2-oxoacetamide] reads less than 100 nM; that for `COc1cc(NC(=O)C(=O)c2c(C)n(Cc3ccc(Cl)cc3)c3ccc(C(C)=O)cc23)ccn1` [Compound 5, 2-(5-acetyl-1-(4-chlorobenzyl)-2-methyl-1H-indol-3-yl)-N-(2-methoxypyridin-4-yl)-2-oxoacetamide], less than 100 nM; that for `COc1cc(NC(=O)C(=O)c2c(C)n(Cc3ccc(Cl)cc3)c3cnccc23)ccn1` [Compound 35, 2-(1-(4-chlorobenzyl)-2-methyl-1H-pyrrolo[2,3-c]pyridin-3-yl)-N-(2-methoxypyridin-4-yl)-2-oxoacetamide], 100 to 1000 nM. The result for `COc1cc(NC(=O)C(=O)c2c(C)n(Cc3ccc(Cl)cc3)c3ccc(OC)nc23)ccn1` [Compound 36, 2-(1-(4-chlorobenzyl)-5-methoxy-2-methyl-1H-pyrrolo[3,2-b]pyridin-3-yl)-N-(2-methoxypyridin-4-yl)-2-oxoacetamide] reads less than 100 nM.

These data come from patent US20150175599A1, “FAAH Inhibitors” (Ironwood Pharmaceuticals, Inc., priority 2010, published 2015).
